According to doi:10.1101/2020.03.08.982454v1 (biorxiv, 2020):

Assays:
[1] = biological target: KMP-11 (Leishmania donovani, UniProt Q36736, F62W); test: biochemical
[2] = biological target: KMP-11 (Leishmania donovani, UniProt Q36736, Y48W); test: biochemical
[3] = biological target: KMP-11 (Leishmania donovani, UniProt Q36736, Y89W); test: biochemical
[4] = biological target: KMP-11 (Leishmania donovani, UniProt Q36736, Y5W); test: biochemical
[5] = biological target: T1, KMP-11 (Leishmania donovani, UniProt Q36736); test: DiI C-18 fluorescence quenching, Hill fit; type: binding
T1 sequence (Q36736 1-92): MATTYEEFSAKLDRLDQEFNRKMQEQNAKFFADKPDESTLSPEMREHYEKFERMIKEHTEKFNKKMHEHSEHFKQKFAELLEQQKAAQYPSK

Structure (SMILES): CCCCCCCCCCCCCCCC(=O)OC[C@H](COP(=O)([O-])OCC[N+](C)(C)C)OC(=O)CCCCCCCCCCCCCCC [DPPC]
- Kd [1]: 3800 nM
- Kd [2]: 118 nM
- Kd [3]: 161 nM
- Kd [4]: 19.4 nM
- Kd [5]: 286 nM
